# Laboratory results as given in ChEMBL document CHEMBL1201862, “PubChem BioAssay data set” (2004).
#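 Step 1: Grow cells in 96-well plates. Step 2: Expose to compound for 48 hours at 5 concentrations. Step 3: Interpolate endpoints linearly; if unreached, use highest concentration. GI50 is the concentration that inhibits growth by half.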 Activity calls are given as the source filed them. Cut-off read from the data, not from the text of the source: active = GI50 up to about 1.1 µM and inactive = higher. *1 amine or outer side, *2 acyl side, *3 side chain or, on linkers, in order; H or OH if unused. Where a SMILES comes first, the peptide text is derived from it. Bridges are numbered along the chain shown (N, C = ends). [ ]: non-standard residue; d: D form. The star is where a group is joined. ξ: configuration not given here. ξOrn(4,5-diOH) = O=C(C(CC(O)C(O)N[*:3])N[*:1])[*:2]; ξhTyr(βξ-OH,γξ-OH) = NC(C(=O)O)C(O)C(O)c1ccc(O)cc1; ξPro(3ξ-OH,4ξ-Me) = CC1CNC(C(=O)O)C1O; X55 = CCCCC/C=C/C/C=C\CCCCCCCC(=O)*; Hyp = O=C(O)[CH]1C[CH](O)CN1
# Tests used:
# Assay in all cases: NCI tumour cell line growth inhibition, 48 h
# DU-145 = test system: DU-145
# A549 = test system: A549
# TK-10 = test system: TK-10
# OVCAR-8 = test system: OVCAR-8
# NCI-H522 = test system: NCI-H522
# NCI/ADR-RES = test system: NCI/ADR-RES
# SF-268 = test system: SF-268
# UACC-62 = test system: UACC-62
# SW-620 = test system: SW-620
# RXF 393 = test system: RXF 393
# UACC-257 = test system: UACC-257
# SK-OV-3 = test system: SK-OV-3
# CAKI-1 = test system: CAKI-1
# K562 = test system: K562
# NCI-H226 = test system: NCI-H226
# HCT-15 = test system: HCT-15
# PC-3 = test system: PC-3
# OVCAR-4 = test system: OVCAR-4
# MDA-N = test system: MDA-N
SMILES,GI50 (DU-145),GI50 (A549),GI50 (TK-10),GI50 (OVCAR-8),GI50 (NCI-H522),GI50 (NCI/ADR-RES),GI50 (SF-268),GI50 (UACC-62),GI50 (SW-620),GI50 (RXF 393),GI50 (UACC-257),GI50 (SK-OV-3),GI50 (CAKI-1),GI50 (K562),GI50 (NCI-H226),GI50 (HCT-15) [µM],GI50 (PC-3),GI50 (OVCAR-4),GI50 (MDA-N)
C/C(=C\COP(=O)(O)OP(=O)(O)O)CC/C=C(\C)CNc1ccccc1,> 50 µM (inactive),> 50 µM (inactive),39.4 µM (inactive),> 50 µM (inactive),> 50 µM (inactive),> 50 µM (inactive),> 50 µM (inactive),> 50 µM (inactive),> 50 µM (inactive),> 50 µM (inactive),43 µM (inactive),> 50 µM (inactive),> 50 µM (inactive),> 50 µM (inactive),> 50 µM (inactive),> 50,> 50 µM (inactive),,
CCn1c(-c2cc3ccccc3cc2OC(C)=O)n[nH]c1=S,35.5 µM (inactive),,27.4 µM (inactive),38.4 µM (inactive),16.1 µM (inactive),21.2 µM (inactive),24.9 µM (inactive),,35 µM (inactive),11.1 µM (inactive),24.2 µM (inactive),50.7 µM (inactive),30.8 µM (inactive),14.5 µM (inactive),38.6 µM (inactive),27,15.8 µM (inactive),30 µM (inactive),
COc1ccc(CC2c3cc(OC)c(OC)cc3CC[N+]2(C)C)cc1OC (centres undefined),> 100 µM (inactive),> 100 µM (inactive),> 100 µM (inactive),> 100 µM (inactive),> 100 µM (inactive),> 100 µM (inactive),> 100 µM (inactive),> 100 µM (inactive),> 100 µM (inactive),,> 100 µM (inactive),> 100 µM (inactive),> 100 µM (inactive),> 100 µM (inactive),> 100 µM (inactive),> 100,> 100 µM (inactive),> 100 µM (inactive),> 100 µM (inactive)
COc1ccc(N[S+]([O-])c2c(C)cc(C)cc2C)cc1 (centres undefined),93.3 µM (inactive),26.4 µM (inactive),> 100 µM (inactive),72.1 µM (inactive),19.1 µM (inactive),49.8 µM (inactive),21.6 µM (inactive),33.7 µM (inactive),48.2 µM (inactive),,70.1 µM (inactive),,,42.1 µM (inactive),36.2 µM (inactive),18.2,,86.5 µM (inactive),93.1 µM (inactive)
NC(=O)c1nnc2cc(F)ccc2c1N,> 100 µM (inactive),> 100 µM (inactive),76.2 µM (inactive),> 100 µM (inactive),46.3 µM (inactive),> 100 µM (inactive),> 100 µM (inactive),97.3 µM (inactive),> 100 µM (inactive),,> 100 µM (inactive),85.5 µM (inactive),91.2 µM (inactive),> 100 µM (inactive),58.2 µM (inactive),> 100,> 100 µM (inactive),> 100 µM (inactive),> 100 µM (inactive)
COC(=O)[C@]12CCC(C)(C)C[C@H]1[C@H]1C(=O)C=C3[C@@]4(C)C=C(C#N)C(=O)C(C)(C)[C@@H]4CC[C@@]3(C)[C@]1(C)CC2 [BARDOXOLONE METHYL],0.0239 µM (active),0.0294 µM (active),0.0269 µM (active),0.0199 µM (active),0.0728 µM (active),0.0188 µM (active),0.0238 µM (active),0.0145 µM (active),0.0219 µM (active),0.0247 µM (active),0.0455 µM (active),0.126 µM (active),0.0273 µM (active),0.0205 µM (active),0.0346 µM (active),0.0178,0.0165 µM (active),0.162 µM (active),
c1ccc2c(c1)SCCCS2,> 100 µM (inactive),> 100 µM (inactive),> 100 µM (inactive),> 100 µM (inactive),> 100 µM (inactive),> 100 µM (inactive),> 100 µM (inactive),> 100 µM (inactive),> 100 µM (inactive),,> 100 µM (inactive),> 100 µM (inactive),,> 100 µM (inactive),,> 100,> 100 µM (inactive),> 100 µM (inactive),> 100 µM (inactive)
O=C(NC1=NC2C=CC([N+](=O)[O-])=CC2S1)C(=O)Nn1c(S)nc2ccccc2c1=O (centres undefined),,> 100 µM (inactive),63 µM (inactive),87.1 µM (inactive),47.3 µM (inactive),> 100 µM (inactive),99.3 µM (inactive),92 µM (inactive),> 100 µM (inactive),50.6 µM (inactive),> 100 µM (inactive),63 µM (inactive),40.4 µM (inactive),64.1 µM (inactive),18.8 µM (inactive),21.2,40.6 µM (inactive),27.4 µM (inactive),> 100 µM (inactive)
O=C1OC(c2ccccc2)N(C(=O)c2ccccc2)C1Cc1ccc(OCc2ccccc2)cc1 (centres undefined),> 100 µM (inactive),80.2 µM (inactive),43.9 µM (inactive),94.8 µM (inactive),,19.9 µM (inactive),10.1 µM (inactive),8.11 µM (inactive),> 100 µM (inactive),,,> 100 µM (inactive),,> 100 µM (inactive),> 100 µM (inactive),> 100,34.8 µM (inactive),,> 100 µM (inactive)
CCOc1ccc2c(c1)c(CC(=O)O)cn2C,> 100 µM (inactive),> 100 µM (inactive),> 100 µM (inactive),> 100 µM (inactive),> 100 µM (inactive),> 100 µM (inactive),> 100 µM (inactive),> 100 µM (inactive),,> 100 µM (inactive),> 100 µM (inactive),> 100 µM (inactive),> 100 µM (inactive),> 100 µM (inactive),> 100 µM (inactive),> 100,> 100 µM (inactive),,
CC(=O)Nc1ccc2nncnc2c1,> 100 µM (inactive),> 100 µM (inactive),> 100 µM (inactive),> 10 µM (inactive),> 100 µM (inactive),> 100 µM (inactive),> 100 µM (inactive),> 100 µM (inactive),> 100 µM (inactive),,> 100 µM (inactive),> 100 µM (inactive),> 100 µM (inactive),> 100 µM (inactive),> 100 µM (inactive),> 100,> 100 µM (inactive),> 100 µM (inactive),> 100 µM (inactive)
"CCCCC/C=C/C/C=C\CCCCCCCC(=O)NC1CC(O)C(O)NC(=O)C2C(O)C(C)CN2C(=O)C(C(C)O)NC(=O)C(C(O)C(O)c2ccc(O)cc2)NC(=O)C2CC(O)CN2C(=O)C(C(C)O)NC1=O (stereo not drawn) (X55-[ξOrn(4,5-diOH)]T[Hyp][ξhTyr(βξ-OH,γξ-OH)]T[ξPro(3ξ-OH,4ξ-Me)]; lactam 1-C; configuration not given here)",> 100 µM (inactive),> 100 µM (inactive),> 100 µM (inactive),> 100 µM (inactive),> 100 µM (inactive),> 100 µM (inactive),> 100 µM (inactive),> 100 µM (inactive),> 100 µM (inactive),,> 100 µM (inactive),,> 100 µM (inactive),> 100 µM (inactive),,> 100,> 100 µM (inactive),> 100 µM (inactive),> 100 µM (inactive)
CC(C)=NN/C(=N\c1ccc(Cl)cc1)NS(=O)(=O)c1cc(Cl)c(Oc2ccc([N+](=O)[O-])cc2Cl)c(Cl)c1,> 100 µM (inactive),76.7 µM (inactive),> 100 µM (inactive),> 100 µM (inactive),91 µM (inactive),> 100 µM (inactive),> 100 µM (inactive),> 100 µM (inactive),> 100 µM (inactive),,> 100 µM (inactive),,> 100 µM (inactive),53.6 µM (inactive),> 100 µM (inactive),> 100,87.9 µM (inactive),67.3 µM (inactive),> 100 µM (inactive)
CN(C)/C=N/c1c2ccccc2nc2ccccc12,4.83 µM (inactive),4.61 µM (inactive),7.16 µM (inactive),3.92 µM (inactive),2.01 µM (inactive),10.6 µM (inactive),3.35 µM (inactive),2.45 µM (inactive),,4.34 µM (inactive),2.3 µM (inactive),5.64 µM (inactive),18 µM (inactive),4.47 µM (inactive),1.75 µM (inactive),8.13,2.98 µM (inactive),6.64 µM (inactive),
COC(=O)CCC1=CCC2(SC)C(=O)Nc3cccc1c32 (centres undefined),44.5 µM (inactive),> 100 µM (inactive),> 100 µM (inactive),> 100 µM (inactive),> 100 µM (inactive),> 100 µM (inactive),> 100 µM (inactive),> 100 µM (inactive),> 100 µM (inactive),,> 100 µM (inactive),> 100 µM (inactive),> 100 µM (inactive),,> 100 µM (inactive),> 100,> 100 µM (inactive),> 100 µM (inactive),
O=c1cc(NNc2cccc(F)c2)[nH]c(=S)[nH]1,> 100 µM (inactive),> 100 µM (inactive),> 100 µM (inactive),> 100 µM (inactive),,> 100 µM (inactive),1.97 µM (inactive),,> 100 µM (inactive),,> 100 µM (inactive),,,61.4 µM (inactive),> 100 µM (inactive),54.1,> 100 µM (inactive),> 100 µM (inactive),> 100 µM (inactive)
Cn1c2ccccc2n2c(=O)c(-c3ccc(Cl)cc3)nnc12,> 100 µM (inactive),> 100 µM (inactive),> 100 µM (inactive),> 100 µM (inactive),> 100 µM (inactive),> 100 µM (inactive),> 100 µM (inactive),,> 100 µM (inactive),> 100 µM (inactive),> 100 µM (inactive),,> 100 µM (inactive),,> 100 µM (inactive),> 100,,68.4 µM (inactive),> 100 µM (inactive)
